Where two headings read alike, the source gives them in different places.
Legend:
Type in all cases: biochemical
MMP-1 = molecular target: T1, MMP-1 (Homo sapiens, UniProt P03956); experiment: MMP-1 inhibition (thiopeptide or fluorescent peptide substrate assay); conditions: read-out: MMP-1 IC50
T1 sequence (P03956 100-469): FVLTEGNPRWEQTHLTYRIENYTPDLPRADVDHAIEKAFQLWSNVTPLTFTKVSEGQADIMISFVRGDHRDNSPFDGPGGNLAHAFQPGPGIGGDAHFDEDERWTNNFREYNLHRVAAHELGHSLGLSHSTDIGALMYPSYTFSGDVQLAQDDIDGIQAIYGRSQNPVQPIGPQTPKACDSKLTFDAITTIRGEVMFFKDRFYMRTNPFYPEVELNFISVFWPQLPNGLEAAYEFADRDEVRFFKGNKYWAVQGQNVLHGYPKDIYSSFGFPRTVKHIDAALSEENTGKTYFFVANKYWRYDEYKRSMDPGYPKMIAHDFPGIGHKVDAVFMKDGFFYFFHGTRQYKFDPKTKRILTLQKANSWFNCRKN

MMP-9 = MMP-9 (Homo sapiens, UniProt P14780); experiment: MMP-9 inhibition (thiopeptide or fluorescent peptide substrate assay); conditions: read-out: MMP-9 IC50
MMP-13 = MMP-13 (Homo sapiens, UniProt P45452); experiment: MMP-13 inhibition (thiopeptide or fluorescent peptide substrate assay)
Experimental: The enzyme activity is measured by the rate of the color increase. The thiopeptide substrate is made up fresh as a 20 mM stock in 100% DMSO and the DTNB is dissolved in 100% DMSO as a 100 mM stock and stored in the dark at room temperature. Both the substrate and DTNB are diluted together to 1 mM with substrate buffer (50 mM HEPES pH 7.5, 5 mM CaCl2) before use. […] Alternatively, a fluorescent peptide substrate is used. In this assay, the peptide substrate contains a fluorescent group and a quenching group. Upon cleavage of the substrate by an MMP, the fluorescence that is generated is quantitated on the fluorescence plate reader. […] The substrate is dissolved in methanol and stored frozen in 1 mM aliquots. For the assay, substrate and enzymes are diluted in HCBC buffer to the desired concentrations. Compounds are added to the 96 well plate containing enzyme and the reaction is started by the addition of substrate. […] For either the thiopeptide or fluorescent peptide assays, the slope of the line is calculated and represents the reaction rate. […] The mean (x±sem) of the control rate is calculated and compared for statistical significance (p<0.05) with drug-treated rates using Dunnett's multiple comparison test.

TACE = TACE (Homo sapiens, UniProt P78536); experiment: TACE inhibition (fluorescent peptidyl substrate); conditions: for inhibition at 1 µM: at 1µM concentration
Chain of TACE (P78536 215-824): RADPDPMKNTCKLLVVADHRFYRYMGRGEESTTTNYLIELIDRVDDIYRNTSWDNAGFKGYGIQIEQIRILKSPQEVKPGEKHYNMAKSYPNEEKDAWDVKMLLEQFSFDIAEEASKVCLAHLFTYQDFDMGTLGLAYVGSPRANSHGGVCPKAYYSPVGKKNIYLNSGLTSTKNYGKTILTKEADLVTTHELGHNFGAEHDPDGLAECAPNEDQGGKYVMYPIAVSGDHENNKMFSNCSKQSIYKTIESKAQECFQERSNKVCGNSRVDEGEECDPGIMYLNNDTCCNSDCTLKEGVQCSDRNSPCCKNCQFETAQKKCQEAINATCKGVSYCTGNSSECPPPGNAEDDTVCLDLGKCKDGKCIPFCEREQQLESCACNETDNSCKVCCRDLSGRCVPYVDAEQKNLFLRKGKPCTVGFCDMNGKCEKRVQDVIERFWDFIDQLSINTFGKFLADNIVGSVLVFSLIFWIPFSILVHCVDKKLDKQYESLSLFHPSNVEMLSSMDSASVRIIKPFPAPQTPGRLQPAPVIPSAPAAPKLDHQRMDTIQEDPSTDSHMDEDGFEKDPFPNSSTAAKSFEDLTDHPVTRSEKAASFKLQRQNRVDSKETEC
Experimental: Using 96-well black microtiter plates, each well receives a solution composed of 10 µL TACE (Immunex, final concentration 1µg/mL), 70µL Tris buffer, pH 7.4 containing 10% glycerol (final concentration 10 mM), and 10 µL of test compound solution in DMSO (final concentration 1µM, DMSO concentration <1%) and incubated for 10 minutes at room temperature.
The reaction is read (excitation 340 nm, emission 420 nm) for 10 min. and the increase in fluorescence over time is plotted as a linear line. The slope of the line is calculated and represents the reaction rate.
The linearity of the reaction rate is confirmed (r^2 >0.85). The mean (x±sem) of the control rate is calculated and compared for statistical significance (p<0.05) with drug-treated rates using Dunnett's multiple comparison test.

Chain of MMP-9 (P14780 94-707): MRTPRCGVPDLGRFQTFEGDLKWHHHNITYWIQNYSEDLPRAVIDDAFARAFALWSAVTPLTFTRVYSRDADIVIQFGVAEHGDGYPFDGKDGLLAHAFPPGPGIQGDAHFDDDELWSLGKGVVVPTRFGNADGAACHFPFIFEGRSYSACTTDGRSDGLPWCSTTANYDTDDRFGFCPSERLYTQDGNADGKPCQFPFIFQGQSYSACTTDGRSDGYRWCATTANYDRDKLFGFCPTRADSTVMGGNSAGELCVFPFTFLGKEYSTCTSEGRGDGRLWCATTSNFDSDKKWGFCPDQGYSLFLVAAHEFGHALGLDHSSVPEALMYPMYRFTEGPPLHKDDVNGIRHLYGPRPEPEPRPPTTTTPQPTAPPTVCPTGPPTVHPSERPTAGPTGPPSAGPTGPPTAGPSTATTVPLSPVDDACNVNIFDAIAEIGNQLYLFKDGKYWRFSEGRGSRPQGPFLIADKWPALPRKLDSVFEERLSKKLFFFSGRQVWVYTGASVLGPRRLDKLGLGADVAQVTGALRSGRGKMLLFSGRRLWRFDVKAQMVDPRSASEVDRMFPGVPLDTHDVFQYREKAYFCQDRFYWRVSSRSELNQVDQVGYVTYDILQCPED

Structure (SMILES)	IC50 (MMP-1)	IC50 (MMP-9)	IC50 (MMP-13; read-out: MMP-13 IC50)	IC50 (TACE; read-out: TACE IC50)	IC50 (TACE)	inhibition at 1 µM (TACE)	IC50 (MMP-13)
COc1ccc(S(=O)(=O)N(Cc2ccccc2)c2ccc(C)cc2C(=O)NO)cc1 [Example 29, 2-[Benzyl-(4-methoxy-benzenesulfonyl)-amino]-N-hydroxy-5-methyl-benzamide]	0.553 µM	0.353 µM	0.728 µM	1 µM	–	–	–
COc1ccc(S(=O)(=O)N(Cc2ccccc2)c2c(OCC(F)(F)F)cccc2C(=O)NO)cc1 [Example 55, 2-[Benzyl-(4-methoxy-benzenesulfonyl)-amino]-N-hydroxy-3-(2,2,2-trifluoroethoxy)-benzamide]	0.67 µM	0.029 µM	0.216 µM	> 1 µM	–	–	–
COCCOCOc1cccc(C(=O)NO)c1N(Cc1ccccc1)S(=O)(=O)c1ccc(OC)cc1 [Example 56, 2-[Benzyl-(4-methoxy-benzenesulfonyl)-amino]-N-hydroxy-3-(2-methoxy-ethoxymethoxy)-benzamide]	> 1 µM	0.057 µM	0.138 µM	> 1 µM	–	–	–
COc1ccc(S(=O)(=O)N(Cc2ccccc2)c2c(OCc3ccc(C(=O)NO)cc3)cccc2C(=O)NO)cc1 [Example 57, 2-[Benzyl-(4-methoxy-benzenesulfonyl)-amino]-3-[4-(hydroxyaminocarbonyl)-benzyloxy]-N-hydroxy-benzamide]	> 0.5 µM	0.012 µM	0.033 µM	1 µM	–	–	–
COc1ccc(S(=O)(=O)N(Cc2ccccc2)c2c(OCCCC(=O)NO)cccc2C(=O)NO)cc1 [Example 58, 2-[Benzyl-(4-methoxy-benzenesulfonyl)-amino]-N-hydroxy-3-(3-hydroxycarbamoyl-propoxy)-benzamide]	0.244 µM	0.005 µM	0.036 µM	0.682 µM	–	–	–
COc1ccc(S(=O)(=O)N(Cc2ccccc2)c2c(OCCCCC(=O)NO)cccc2C(=O)NO)cc1 [Example 59, 2-[Benzyl-(4-methoxy-benzenesulfonyl)-amino]-N-hydroxy-3-(4-hydroxycarbamoyl-butoxy)-benzamide]	0.242 µM	0.008 µM	0.034 µM	> 1 µM	–	–	–
COc1ccc(S(=O)(=O)N(Cc2ccccc2)c2c(OC(C)C)cccc2C(=O)NO)cc1 [Example 60, 2-[Benzyl-(4-methoxy-benzenesulfonyl)-amino]-N-hydroxy-3-isopropoxy-benzamide]	0.152 µM	0.007 µM	0.015 µM	0.232 µM	–	–	–
COc1ccc(S(=O)(=O)N(Cc2ccccc2)c2c(C)cc(C)cc2C(=O)NO)cc1 [Example 68, 2-[Benzyl-(4-methoxy-benzenesulfonyl)-amino]-N-hydroxy-3,5-dimethyl-benzamide]	0.082 µM	0.021 µM	0.015 µM	0.239 µM	–	–	–
Cc1cc(C)c(N(Cc2ccccc2)S(=O)(=O)c2ccc(F)cc2)c(C(=O)NO)c1 [Example 69, 2-[Benzyl-(4-fluoro-benzenesulfonyl)-amino]-N-hydroxy-3,5-dimethyl-benzamide]	0.153 µM	0.874 µM	1.37 µM	> 1 µM	–	–	–
CCCCOc1ccc(S(=O)(=O)N(Cc2ccccc2)c2c(C)cc(C)cc2C(=O)NO)cc1 [Example 72, 2-[Benzyl-(4-butoxy-benzenesulfonyl)-amino]-N-hydroxy-3,5-dimethyl-benzamide]	> 1 µM	0.144 µM	0.137 µM	0.377 µM	–	–	–
Cc1cc(C)c(N(Cc2ccccc2)S(=O)(=O)c2ccc(OCc3ccccc3)cc2)c(C(=O)NO)c1 [Example 74, 2-[Benzyl-(4-benzyloxy-benzenesulfonyl)-amino]-N-hydroxy-3,5-dimethyl-benzamide]	> 1 µM	0.554 µM	0.959 µM	–	0.429 µM	–	–
C#Cc1cc(C)c(N(Cc2ccccc2)S(=O)(=O)c2ccc(OC)cc2)c(C(=O)NO)c1 [Example 80, 2-[Benzyl-(4-methoxy-benzenesulfonyl)-amino]-5-ethynyl-N-hydroxy-3-methyl-benzamide]	0.109 µM	0.021 µM	0.018 µM	0.134 µM	–	–	–
COc1ccc(S(=O)(=O)N(Cc2cccnc2)c2c(C)cc(C)cc2C(=O)NO)cc1 [Example 88, N-Hydroxy-2-[(4-methoxy-benzenesulfonyl)-pyridin-3-ylmethyl-amino]-3,5-dimethyl-benzamide]	0.132 µM	0.015 µM	0.011 µM	0.05 µM	–	–	–
COc1ccc(S(=O)(=O)N(Cc2ccccc2)c2cc3ccccc3cc2C(=O)NO)cc1 [Example 94, 3-[Benzyl-(4-methoxy-benzenesulfonyl)-amino]-naphthalene-2-carboxylic acid hydroxyamide]	1 µM	0.276 µM	0.209 µM	> 1 µM	–	–	–
COc1ccc(S(=O)(=O)N(Cc2cccc(OC)c2)c2c(C)cc(C)cc2C(=O)NO)cc1 [Example 115, N-Hydroxy-2-[(4-methoxy-benzenesulfonyl)-(3-methoxy-benzyl)-amino]-3,5-dimethyl-benzamide]	> 1 µM	0.011 µM	0.02 µM	0.173 µM	–	–	–
COc1ccc(S(=O)(=O)N(Cc2c(F)c(F)c(OC)c(F)c2F)c2c(C)cc(C)cc2C(=O)NO)cc1 [Example 116, N-Hydroxy-2-[(4-methoxy-benzenesulfonyl)-(2,3,5,6-tetrafluoro-4-methoxy-benzyl)-amino]-3,5-dimethyl-benzamide]	0.201 µM	0.013 µM	0.014 µM	0.271 µM	–	–	–
COc1ccc(S(=O)(=O)N(Cc2ccccc2Br)c2c(C)cc(C)cc2C(=O)NO)cc1 [Example 118, 2-[(2-Bromo-benzyl)-(4-methoxy-benzenesulfonyl)-amino]-N-hydroxy-3,5-dimethyl-benzamide]	0.248 µM	0.345 µM	0.229 µM	> 1 µM	–	–	–
COc1ccc(S(=O)(=O)N(Cc2cccc(Br)c2)c2c(C)cc(C)cc2C(=O)NO)cc1 [Example 119, 2-[(3-Bromo-benzyl)-(4-methoxy-benzenesulfonyl)-amino]-N-hydroxy-3,5-dimethyl-benzamide]	0.223 µM	0.027 µM	0.014 µM	0.252 µM	–	–	–
COc1ccc(S(=O)(=O)N(Cc2ccc(Br)cc2)c2c(C)cc(C)cc2C(=O)NO)cc1 [Example 120, 2-[(4-Bromo-benzyl)-(4-methoxy-benzenesulfonyl)-amino]-N-hydroxy-3,5-dimethyl-benzamide]	0.238 µM	0.018 µM	0.039 µM	0.31 µM	–	–	–
COc1ccc(S(=O)(=O)N(C)c2c(C)cc(C)cc2C(=O)NO)cc1 [Example 130, N-Hydroxy-2-[(4-methoxy-benzenesulfonyl)-methyl-amino]-3,5-dimethyl-benzamide]	0.213 µM	0.004 µM	0.013 µM	0.076 µM	–	–	–
CCN(c1c(C)cc(C)cc1C(=O)NO)S(=O)(=O)c1ccc(OC)cc1 [Example 131, 2-[Ethyl-(4-methoxy-benzenesulfonyl)-amino]-N-hydroxy-3,5-dimethyl-benzamide]	0.212 µM	0.054 µM	0.048 µM	0.08 µM	–	–	–
COc1ccc(S(=O)(=O)N(Cc2cccnc2)c2c(Br)cc(C)cc2C(=O)NO)cc1 [Example 138, 3-Bromo-N-hydroxy-2-[(4-methoxy-benzenesulfonyl)-pyridin-3-ylmethyl-amino]-5-methyl-benzamide]	0.258 µM	0.077 µM	0.057 µM	0.215 µM	–	–	–
COc1ccc(S(=O)(=O)N(Cc2ccccc2)c2c(C(=O)NO)cccc2[N+](=O)[O-])cc1 [Example 170, 2-[Benzyl-(4-methoxy-benzenesulfonyl)-amino]-N-hydroxy-3-nitro-benzamide]	0.347 µM	0.012 µM	0.039 µM	0.176 µM	–	–	–
COc1ccc(S(=O)(=O)N(Cc2ccccc2)c2c(OCCCO)cccc2C(=O)NO)cc1 [Example 174, 2-[Benzyl-(4-methoxy-benzenesulfonyl)-amino]-N-hydroxy 3-(3-hydroxy-propoxy)-benzamide]	0.323 µM	0.016 µM	0.071 µM	–	–	50%	–
COc1ccc(S(=O)(=O)N(Cc2cccnc2)c2c(C)cc(-c3cccs3)cc2C(=O)NO)cc1 [Example 175, N-Hydroxy-2-[(4-methoxybenzenesulfonyl)-pyridin-3-ylmethyl-amino]-3-methyl-5-thiophen-2-yl benzamide]	0.09 µM	0.007 µM	0.004 µM	0.057 µM	–	–	–
COc1ccc(S(=O)(=O)N(Cc2ccccc2)c2c(C#N)cc(C)cc2C(=O)NO)cc1 [Example 179]	0.68 µM	0.04 µM	0.053 µM	–	–	64%	–
COc1ccc(S(=O)(=O)N(Cc2cccnc2)c2c(C(=O)NO)cc(C)cc2-c2ccco2)cc1 [Example 186, 3-Furan-2-yl-N-hydroxy-2-[(4-methoxybenzenesulfonyl)-pyridin-3-ylmethylamino]-5-methyl-benzamide]	0.037 µM	0.013 µM	–	–	0.061 µM	–	0.0014 µM
CCN(CC)Cc1cccc(C(=O)NO)c1N(C)S(=O)(=O)c1ccc(OC)cc1 [Example 191, 3-Diethylaminomethyl-N-hydroxy-2-[(4-methoxybenzenesulfonyl)-methylamino]benzamide]	1.24 µM	0.01 µM	0.067 µM	0.21 µM	–	–	–

— patent EP0938471B1, “THE PREPARATION AND USE OF ORTHO-SULFONAMIDO ARYL HYDROXAMIC ACIDS AS MATRIX METALLOPROTEINASE AND TACE INHIBITORS” (priority 1996, dated 1998)
